One compound from patent US5420010A, “Assay for evaluating inhibition of polymorphonuclear leukocyte elastase by N-substituted azetidinones” (Merck & Co., Inc., priority 1993, dated 1995) can be followed below.

The subject of this assay is HLE:α1 PI complexes. In words: Decrease in HLE:α1 PI complexes formed in A23187-stimulated human blood (ELISA). Format: cell-based. The note with it: after treatment with A23187, 100 μM, 30 minutes. Here is the method: The blood was then incubated for 30 minutes at 37° C. with 100 μM A23187 (CAL. BIOCHEM.) to stimulate the release of HLE from polymorphonuclear leukocytes. Platelet rich plasma was removed from each sample and prepared for the analysis of HLE:α1 PI complexes by ELISA, and Aα(1-21) by specific RIA.
(Compound B* differs from Compound B only by the substituent on the phenoxy.) A23187, 100 μM, was added and the blood was incubated for an additional 30 minutes. The amounts of reactivation product and α1 PI:elastase complex in the plasma were determined. The total concentration of α1 PI:Elastase complexes formed was 139 μM after treatment with A23187.
(In an ELISA, binding on a coated surface is turned into a signal by an enzyme label.)

As for `CNc1ccc2oc(C[C@H]3O[C@@]4(CC[C@H]3C)O[C@H]([C@H](C)C(=O)c3ccc[nH]3)[C@H](C)C[C@H]4C)nc2c1C(=O)O` [Compound A23187], the “total concentration of α1 PI:Elastase complexes formed” value came out at 139 µM.
